Measurements taken from publication PMC11822212, “High-throughput screening identifies Aurora kinase B as a critical therapeutic target for Merkel cell carcinoma” (Nature Communications, 2025).
“And” between values parts separate entries of the source, which are not always exact repeats. Identical values can stand only once. Counter-ions that a name gives are not always drawn. Like-named read-outs stand apart in the source and are kept apart here.

Experiments:
[1] = test system: HACAT cells; assay: qHTS cell viability (CellTiter-Glo, 72 h; primary screen), control cell line; format: cell-based, human
[2] = test system: MCC26 cells (VN-MCC); assay: qHTS cell viability (CellTiter-Glo, 72 h; primary and follow-up small molecule screen); format: cell-based, human
[3] = test system: UISO cells (VN-MCC); assay: as above; format: cell-based, human
[4] = test system: MCC13 cells (VN-MCC); assay: as above; format: cell-based, human
[5] = test system: NIH-3T3 cells; assay: qHTS cell viability (CellTiter-Glo, 72 h; primary screen), control cell line; format: cell-based, mouse
[6] = test system: HEK293T cells; assay: as above; format: cell-based, human
[7] = test system: VP-MCC cell lines (WAGA, MKL-1, MKL-2); assay: qHTS cell viability, VP-MCC cell lines as a group (mean AUC, VP.MCC.avg); format: cell-based, human
[8] = test system: six MCC cell lines and four control cell lines; assay: qHTS cell viability, all 10 cell lines screened; format: cell-based
[9] = test system: WAGA cells (VP-MCC); assay: qHTS cell viability (CellTiter-Glo, 72 h; primary and follow-up small molecule screen); format: cell-based, human
[10] = test system: control cell lines (HACAT, HEK293T, CRL-7250, NIH-3T3); assay: qHTS cell viability, control cell lines as a group (mean AUC, Control.avg); format: cell-based
[11] = test system: MKL-1 cells (VP-MCC); assay: qHTS cell viability (CellTiter-Glo, 72 h; primary and follow-up small molecule screen); format: cell-based, human
[12] = test system: CRL-7250 cells; assay: qHTS cell viability (CellTiter-Glo, 72 h; primary screen), control cell line; format: cell-based
[13] = test system: MCC cell lines (WAGA, MKL-1, MKL-2, MCC13, MCC26, UISO); assay: qHTS cell viability, all six MCC cell lines as a group (mean AUC, MCC.avg); format: cell-based, human
[14] = test system: MKL-2 cells (VP-MCC); assay: qHTS cell viability (CellTiter-Glo, 72 h; primary and follow-up small molecule screen); format: cell-based, human
[15] = test system: VN-MCC cell lines (MCC13, MCC26, UISO); assay: qHTS cell viability, VN-MCC cell lines as a group (mean AUC, VN.MCC.avg); format: cell-based, human
[16] = NPC library, qHTS dose-response AUC, HACAT control
[17] = NPC library, qHTS dose-response AUC, MCC26
[18] = NPC library, qHTS dose-response AUC, UISO
[19] = NPC library, qHTS dose-response AUC, MCC13
[20] = NPC library, qHTS dose-response AUC, NIH3T3 control
[21] = NPC library, qHTS dose-response AUC, HEK293T control
[22] = NPC library, mean AUC of VP-MCC cell lines
[23] = NPC library, therapeutic window: Control avg AUC minus VP-MCC avg AUC
[24] = NPC library, therapeutic window: Control avg AUC minus MCC avg AUC
[25] = NPC library, qHTS dose-response AUC, WAGA
[26] = NPC library, mean AUC of control cell lines
[27] = NPC library, qHTS dose-response AUC, MKL1
[28] = NPC library, qHTS dose-response AUC, CRL7250 control
[29] = NPC library, mean AUC of six MCC cell lines
[30] = NPC library, qHTS dose-response AUC, MKL2
[31] = NPC library, mean AUC of VN-MCC cell lines
[32] = NPC library, therapeutic window: Control avg AUC minus VN-MCC avg AUC
[33] = NPC library, 8-point DRC, control cell line
[34] = NPC library, 8-point DRC, area under dose-response curve

What does the source list for `COc1ccc2c3c1O[C@H]1[C@@H](O)C=C[C@H]4[C@@H](C2)N(C)CC[C@@]341` [Codeine hydrochloride]?
HACAT_AUC [1]: 474.439; MCC26_AUC [2]: 404.512; UISO_AUC [3]: 365.394; MCC13_AUC [4]: 404.155; NIH3T3_AUC [5]: 465.288 and 465.287; HEK293T_AUC [6]: 441.34; Control-VP-MCC [7]: 113.387; VP-MCC_Avg_AUC [7]: 346.415; Control-MCC [8]: 90.9174; WAGA_AUC [9]: 360.01; Control_Avg_AUC [10]: 459.802; MKL1_AUC [11]: 362.385; CRL7250_AUC [12]: 458.141; MCC_Avg_AUC [13]: 368.884; MKL2_AUC [14]: 316.851; Control-VN-MCC [15]: 68.4482; VN-MCC_Avg_AUC [15]: 391.354

`CC[N+](CC)(CC)CCOC(=O)C(C1CCCC1)C1CCCC1` [Diponium bromide] was tested. Which HACAT_AUC [1, 16] did it give?
Its HACAT_AUC is 486.819.

And the HACAT_AUC ([1]; area under the dose-response curve, HACAT control cells, AUC<450 = reduced viability)?
Its HACAT_AUC is 486.819.

And the MCC26_AUC [2, 17]?
Its MCC26_AUC is 499.996.

And the MCC26_AUC ([2]; area under the dose-response curve, MCC26 cells, AUC<450 = reduced viability)?
The MCC26_AUC was 499.996.

And the UISO_AUC [3, 18]?
Its UISO_AUC is 475.444.

And the UISO_AUC ([3]; area under the dose-response curve, UISO cells, AUC<450 = reduced viability)?
The UISO_AUC was 475.444.

And the MCC13_AUC [4, 19]?
Its MCC13_AUC is 522.801.

What about the MCC13_AUC ([4]; area under the dose-response curve, MCC13 cells, AUC<450 = reduced viability) of the same molecule?
Its MCC13_AUC is 522.801.

And the NIH3T3_AUC [5, 20]?
Its NIH3T3_AUC is 484.264.

And the NIH3T3_AUC ([5]; area under the dose-response curve, NIH3T3 control cells, AUC<450 = reduced viability)?
Its NIH3T3_AUC is 484.264.

What about the HEK293T_AUC [6, 21] of the same molecule?
The HEK293T_AUC was 472.065.

What about the HEK293T_AUC ([6]; area under the dose-response curve, HEK293T control cells, AUC<450 = reduced viability) of the same molecule?
Its HEK293T_AUC is 472.065.

And the VP-MCC_Avg_AUC [7, 22]?
The VP-MCC_Avg_AUC was 429.684.

What about the Control-VP-MCC [7, 23] of the same molecule?
The Control-VP-MCC was 53.0478.

What about the Control-MCC [8, 24] of the same molecule?
Its Control-MCC is 18.183.

And the WAGA_AUC [9, 25]?
Its WAGA_AUC is 427.062.

And the WAGA_AUC ([9]; area under the dose-response curve, WAGA cells, AUC<450 = reduced viability)?
Its WAGA_AUC is 427.062.

What about the Control_Avg_AUC [10, 26] of the same molecule?
Its Control_Avg_AUC is 482.732.

What about the MKL1_AUC [11, 27] of the same molecule?
The MKL1_AUC was 427.875.

What about the MKL1_AUC ([11]; area under the dose-response curve, MKL-1 cells, AUC<450 = reduced viability) of the same molecule?
The MKL1_AUC was 427.875.

What about the CRL7250_AUC [12, 28] of the same molecule?
The CRL7250_AUC was 487.778.

What about the CRL7250_AUC ([12]; area under the dose-response curve, CRL7250 control cells, AUC<450 = reduced viability) of the same molecule?
The CRL7250_AUC was 487.778.

And the MCC_Avg_AUC [13, 29]?
Its MCC_Avg_AUC is 464.549.

What about the MKL2_AUC [14, 30] of the same molecule?
The MKL2_AUC was 434.115.

What about the MKL2_AUC ([14]; area under the dose-response curve, MKL-2 cells, AUC<450 = reduced viability) of the same molecule?
The MKL2_AUC was 434.115.

And the VN-MCC_Avg_AUC [15, 31]?
Its VN-MCC_Avg_AUC is 499.413.

What about the Control-VN-MCC [15, 32] of the same molecule?
Its Control-VN-MCC is -16.6818.

With `CCCCC(CC)CNC(=N)NC(=N)NCCCCCCNC(=N)NC(=N)NCC(CC)CCCC` (stereo not drawn) [Alexidine dihydrochloride] as the molecule, how does the HACAT_AUC [1, 16] read?
The HACAT_AUC was 392.766.

What about the MCC26_AUC [2, 17] of the same molecule?
The MCC26_AUC was 401.146.

What about the UISO_AUC [3, 18] of the same molecule?
The UISO_AUC was 330.63.

And the MCC13_AUC [4, 19]?
The MCC13_AUC was 392.522.

And the NIH3T3_AUC [5, 20]?
Its NIH3T3_AUC is 453.563.

And the HEK293T_AUC [6, 21]?
The HEK293T_AUC was 380.139.

And the VP-MCC_Avg_AUC [7, 22]?
The VP-MCC_Avg_AUC was 342.155.

And the Control-VP-MCC [7, 23]?
The Control-VP-MCC was 64.8071.

And the Control-MCC [8, 24]?
The Control-MCC was 48.5013.

What about the WAGA_AUC [9, 25] of the same molecule?
Its WAGA_AUC is 351.758.

What about the Control_Avg_AUC [10, 26] of the same molecule?
The Control_Avg_AUC was 406.962.

What about the MKL1_AUC [11, 27] of the same molecule?
The MKL1_AUC was 329.916.

What about the CRL7250_AUC [12, 28] of the same molecule?
The CRL7250_AUC was 401.378.

And the MCC_Avg_AUC [13, 29]?
Its MCC_Avg_AUC is 358.46.

What about the MKL2_AUC [14, 30] of the same molecule?
The MKL2_AUC was 344.79.

What about the VN-MCC_Avg_AUC [15, 31] of the same molecule?
The VN-MCC_Avg_AUC was 374.766.

What about the Control-VN-MCC [15, 32] of the same molecule?
The Control-VN-MCC was 32.1955.

With `O=S1(=O)OC(c2ccc(O)cc2)(c2ccc(O)cc2)c2ccccc21` [Phenol red] as the molecule, how does the HACAT_AUC [1, 33] read?
Its HACAT_AUC is 492.366.

And the MCC26_AUC [2, 34]?
Its MCC26_AUC is 404.069.

And the UISO_AUC [3, 34]?
The UISO_AUC was 423.512.

And the MCC13_AUC [4, 34]?
The MCC13_AUC was 422.151.

And the NIH3T3_AUC [5, 33]?
The NIH3T3_AUC was 484.742.

And the HEK293T_AUC [6, 33]?
Its HEK293T_AUC is 472.146.

And the Control-VP-MCC ([7]; NPC library, Control AUC minus VP-MCC AUC (therapeutic window))?
Its Control-VP-MCC is 30.8871.

What about the VP-MCC_Avg_AUC [7, 22] of the same molecule?
The VP-MCC_Avg_AUC was 446.945.

What about the Control-MCC ([8]; NPC library, Control AUC minus MCC AUC (therapeutic window)) of the same molecule?
The Control-MCC was 46.071.

And the WAGA_AUC [9, 34]?
The WAGA_AUC was 458.996.

What about the Control_Avg_AUC [10, 26] of the same molecule?
The Control_Avg_AUC was 477.832.

What about the MKL1_AUC [11, 34] of the same molecule?
The MKL1_AUC was 429.88.

What about the CRL7250_AUC [12, 33] of the same molecule?
Its CRL7250_AUC is 462.075.

And the MCC_Avg_AUC [13, 29]?
Its MCC_Avg_AUC is 431.761.

And the MKL2_AUC [14, 34]?
Its MKL2_AUC is 451.959.

And the Control-VN-MCC ([15]; NPC library, Control AUC minus VN-MCC AUC (therapeutic window))?
Its Control-VN-MCC is 61.2549.

What about the VN-MCC_Avg_AUC [15, 31] of the same molecule?
The VN-MCC_Avg_AUC was 416.577.
